A short description of assay [1]: Dissociation constant for binding of camptothecin to the synthetic peptide NSSQSARR by surface plasmon resonance (SPR) method after compound dissolved in 10 % DMSO at 25 degree C.
Assay [2] is described as follows: Dissociation constant for binding of camptothecin to the synthetic peptide NSSQSARR by using quartz-crystal microbalance (QCM) method after compound dissolved in 10 % DMSO at 25 degree C.

Kd data for 1 compound are collected here from ChEMBL document CHEMBL1143477, “Camptothecin binds to a synthetic peptide identified by a T7 phage display screen” (Bioorg Med Chem Lett, 2005).

What is called Kd is the constant that tells how readily two partners part at equilibrium. The low end stands for higher affinity, the high end for lower affinity. In the case of `CC[C@@]1(O)C(=O)OCc2c1cc1n(c2=O)Cc2cc3ccccc3nc2-1` [CAMPTOTHECIN], the Kd in assay [1] stood at 112 nM; in assay [2] it was 94 nM.
